Experimental data reported in PMC6849653, “Volasertib preclinical activity in high-risk hepatoblastoma” (Oncotarget, 2019).
“Also recorded” adds a separate entry of the source. Read-outs that look alike come from different tables or passages of the source.

What was measured:
[1] = cited from earlier work
[2] = tested on: six hepatoblastoma cell cultures; assay: Cell proliferation study, six hepatoblastoma cell cultures together; assay type: cell-based, human
Description: (§1) On day 0, cells were trypsinized and plated into white walled 384-well plates. On day 1, when cells were 70% confluent, volasertib (S2235, SelleckChem, Houston, TX), SN38 (S4908, SelleckChem) or vincristine (S1241, SelleckChem) suspended in DMSO were added to plates using a Tecan D300e drug printer (Tecan Life Sciences, Switzerland), ensuring less than 1% DMSO. […] Absolute IC50 values were calculated using GraphPad Prism (GraphPad, San Diego, CA). Synergy values were calculated using CalcuSyn (Biosoft, Cambridge, UK) software.

[3] = tested on: HB-284; assay: Cell proliferation study, HB-284; assay type: cell-based, human; conditions: 72 h drug exposure, Cell-Titer Glo, average of quadruplicates, read-out: absolute IC50, HB-284
Description: as §1

[4] = tested on: HB-295; assay: Cell proliferation study, HB-295; assay type: cell-based, human; conditions: 72 h drug exposure, Cell-Titer Glo, average of quadruplicates, read-out: absolute IC50, HB-295
Description: as §1

[5] = tested on: HB-243; assay: Cell proliferation study, HB-243; assay type: cell-based, human; conditions: 72 h drug exposure, Cell-Titer Glo, average of quadruplicates, read-out: absolute IC50, HB-243
Description: as §1

[6] = tested on: HB-279; assay: Cell cycle analysis by flow cytometry (PI staining), HB-279; assay type: cell-based, human; conditions: for Percent of cells in S phase / Percent of cells in G2/M / Percent of cells in G1: HB-279, 72 hour treatment, 150 nM volasertib, 3 nM SN38, N=3; for Percent of cells in S phase: DMSO 16.1; for Percent of cells in G2/M: DMSO 26.8; for Percent of cells in G1: DMSO 56.5; for cell cycle arrest as compared to vehicle control: clinically achievable concentrations, 72 hours
Description: After a 72-hour drug treatment, cells were collected and fixed in ice cold 70% ethanol. After rehydration, cells were stained using the Guava Cell Cycle Reagent for Flow Cytometer (4500-0220, MilliporeSigma, Germany) according to the product protocol. Cells were analyzed for propidium iodide using the Guava EasyCyte 8HT (MilliporeSigma). Flow data was analyzed using CytoBank software (Cytobank, Santa Clara, CA).

[7] = tested on: HB-282; assay: Cell proliferation study, HB-282; assay type: cell-based, human; conditions: 72 h drug exposure, Cell-Titer Glo, average of quadruplicates, read-out: absolute IC50, HB-282
Description: as §1

[8] = tested on: HB-279; assay: Cell proliferation study, HB-279; assay type: cell-based, human; conditions: 72 h drug exposure, Cell-Titer Glo, average of quadruplicates, read-out: absolute IC50, HB-279
Description: as §1

[9] = tested on: SMMC7721; design: method as in PMID 27904765; conditions: hepatocellular carcinoma cell line; cited from earlier work
[10] = tested on: HB-214; assay: 60-agent chemical screen, cell viability (Cell-Titer Glo), HB-214; assay type: cell-based; conditions: Homo sapiens; 60-agent screen, 72 hours; a value of 10,000 indicates that the drug did not inhibit viability; read-out: absolute IC50, HB-214;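 further: viability read as luminescence once Cell-Titer Glo 2.0 reagent was added to drug-treated cells in 384-well plates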
Description: (§2) On day 0, cells were trypsinized and plated into a white walled 384-well plate containing pre-diluted known concentrations of various drugs. After 72 hours, an equal volume of Cell-Titer Glo 2.0 (G9243, Promega) was added to each well, incubated at room temperature while rocking in the dark for 15 minutes, followed by luminescence acquisition with a BioTek Synergy HT plate reader (BioTek, Winooski, VT).

[11] = tested on: PLK3; design: method as in PMID 19383823; conditions: read-out: cell-free enzyme IC50, PLK3; cited from earlier work
[12] = tested on: PLK1; design: method as in PMID 19383823; conditions: read-out: cell-free enzyme IC50, PLK1; cited from earlier work
[13] = tested on: PLK2; design: method as in PMID 19383823; conditions: read-out: cell-free enzyme IC50, PLK2; cited from earlier work
[14] = tested on: hepatoblastoma cell lines HepG2, Huh-6 and HB-214 versus hepatocytes; assay: 60-agent chemical screen, hepatoblastoma cell lines taken together / versus hepatocytes
Description: as §2

[15] = tested on: normal human hepatocytes; assay: 60-agent chemical screen, cell viability (Cell-Titer Glo), hepatocytes; assay type: cell-based; conditions: Hepatocyte;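 further: cells were plated onto pre-diluted drug concentrations in 384-well plates, and viability was read after 72 h as CellTiter-Glo 2.0 luminescence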
Description: as §2

[16] = tested on: HepG2; assay: 60-agent chemical screen, cell viability (Cell-Titer Glo), HepG2; assay type: cell-based; conditions: Homo sapiens, 60-agent screen, 72 hours, a value of 10,000 indicates that the drug did not inhibit viability, read-out: absolute IC50, HepG2;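 further: luminescence read-out in 384-well plates, with cells plated directly onto drug dilutions of known concentration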
Description: as §2

[17] = tested on: HB-214 PDX; assay: HB-214 hepatoblastoma PDX in athymic nude mice; assay type: in vivo; conditions: volasertib 30 mg/kg IV 2qwk, irinotecan 10 mg/kg IP q5d, alone or combined; 6 mice per group
Description: These fragments were engrafted in the interscapular region of 6-8 week-old female athymic nude mice (Athymic NudeFoxn1^nu, ENVIGO, Gannat, France). After latency period, mice with a subcutaneously growing tumor between 62 and 256 mm^3 were allocated to each treatment arm according to their tumor volume to obtain homogenous mean and median tumor volume in each arm. Treatments were randomly attributed to boxes housing up to five mice. […] Tumor volume (TV) was evaluated by caliper measurement, 2 or 3 times a week during latency and treatment period. The formula Total Volume (TV) (mm^3) = [length (mm) x width (mm)^2]/2 was used, where the length and the width are the longest and the shortest diameters of the tumor. The tumor growth delay index (TGDI) was calculated as the median growth delay in the treated group divided by the median growth delay in the control group, and represented the x-fold time to reach 5-fold the TV at D0.The ratio between the mean TV of a treated group (T) and the mean TV of the control group (C) was calculated at each measurement, and represented the antitumoral activity of the tested compound(s). The tumor growth rate, evaluated by the formula [DT/T0]-1 where DT is the delta of tumor size between the considered day and the day of enrolment and T0 is mean TV at D0, gives the percentage of growth compared with the initial day. […]

[18] = tested on: SK-Hep1; design: method as in PMID 27904765; conditions: hepatocellular carcinoma cell line; cited from earlier work
[19] = volasertib; cited from earlier work
[20] = tested on: Huh-6; assay: 60-agent chemical screen, cell viability (Cell-Titer Glo), Huh-6; assay type: cell-based; conditions: Homo sapiens, 60-agent screen, 72 hours, a value of 10,000 indicates that the drug did not inhibit viability, read-out: absolute IC50, Huh-6
Description: as §2

[21] = tested on: HB-214; assay: Cell proliferation study, HB-214; assay type: cell-based; conditions: Homo sapiens; 72 h drug exposure, Cell-Titer Glo, average of quadruplicates; read-out: absolute IC50, HB-214
Description: as §1

In the case of CC[C@]1(O)C[C@H]2CN(CCc3c([nH]c4ccccc34)[C@@](C(=O)OC)(c3cc4c(cc3OC)N(C=O)[C@H]3[C@@](O)(C(=O)OC)[C@H](OC(C)=O)[C@]5(CC)C=CCN6CC[C@]43[C@@H]65)C2)C1 [vincristine], the Cmax ([1]; published Cmax of vincristine) is listed as 90 nM and the “sensitivity of hepatoblastoma cell lines to vincristine” value ([2]; 72hr drug exposure, Supplementary Figure 4) is listed as “Several cell lines were highly resistant”.

In the case of CCc1c2c(nc3ccc(O)cc13)-c1cc3c(c(=O)n1C2)COC(=O)[C@]3(O)CC [SN38], the “AUC0-∞” value ([1]; SN38, pediatric study) is given as 0.214 µM·h, the Cmax ([1]; SN38 from clinical trials) is given as 120 nM and the IC50 [3] is given as 210 nM. The IC50 [4] was 500 nM, the IC50 [5] was 160 nM and the “Percent of cells in S phase” value [6] was 17.7%. For the same molecule, the “Percent of cells in G2/M” value [6] was 34.3%, the “Percent of cells in G1” value [6] was 47.6% and the “cell cycle arrest as compared to vehicle control” value [6] was “modest G2/M phase arrest”. The IC50 [7] was 26 nM and the IC50 [8] was 200 nM.

In the case of CC[C@@H]1C(=O)N(C)c2cnc(Nc3ccc(C(=O)N[C@H]4CC[C@H](N5CCN(CC6CC6)CC5)CC4)cc3OC)nc2N1C(C)C [volasertib], the IC50 [9] is given as 3970 nM, the IC50 [10] is given as 360 nM and the IC50 [11] is given as 56 nM. The Cmax ([1]; measured in clinical trials) was 1220 nM, the IC50 [12] was 0.87 nM and the IC50 ([3]; Homo sapiens) was 3300 nM. For the same molecule, the IC50 [13] was 5 nM, the IC50 ([14]; Homo sapiens, Hepatocyte, read-out: IC50, cancer cells) was 360 to 528 nM and the IC50 ([15]; as restated in the discussion, read-out: IC50, normal hepatocytes) was greater than 10000 nM. It also gave an IC50 ([4]; Homo sapiens) of 1170 nM, an IC50 [16] of 528 nM and an IC50 ([5]; Homo sapiens) of 252 nM. For the same molecule, the “Percent of cells in S phase” value [6] was 14.2%, the “Percent of cells in G2/M” value [6] was 40.7% and the “Percent of cells in G1” value [6] was 44.7%. The “cell cycle arrest as compared to vehicle control” value [6] was “cell cycle arrest in G2/M”, the “tumor growth (mean tumor volume over time)” value [17] was “appreciable and cytostatic; also recorded: slowed” and the IC50 ([7]; Homo sapiens) was 2130 nM. For the same molecule, the IC50 [18] was 7020 nM, the side effects [19] was “neutropenia and anemia” and the IC50 [20] was 3820 nM. It also gave an IC50 ([8]; Homo sapiens) of 2020 nM, an IC50 ([2]; Homo sapiens, range over HB-214, HB-243, HB-279, HB-282, HB-284, HB-295, read-out: IC50 across all six hepatoblastoma cell cultures) of less than 10000 nM and an IC50 [21] of 725 nM.

With CC(=O)Nc1cccc(-n2c(=O)n(C3CC3)c(=O)c3c(Nc4ccc(I)cc4F)n(C)c(=O)c(C)c32)c1 [trametinib] the IC50 [10] was 210 nM, the “effectiveness across the three hepatoblastoma cell lines” value ([14]; 60-agent screen) was “only effective in one cell line out of three” and the IC50 ([15]; 60-agent screen, 72 hours, a value of 10,000 indicates that the drug did not inhibit viability, read-out: absolute IC50, Hepatocytes) was greater than 10000 nM. For the same molecule, the IC50 [16] was greater than 10000 nM and the IC50 [20] was greater than 10000 nM.
